The numbers were not newly measured in patent publication US20140287011A1, “ARTHROPOD PEST CONTROL COMPOSITION” (SUMITOMO CHEMICAL COMPANY, LIMITED, priority 2011, published 2014), which cites them from elsewhere.

For the data set the following is noted: water at 20° C.

In the case of `CCOc1cc(C(C)(C)C)ccc1C1COC(c2c(F)cccc2F)=N1` (stereo not shown) [the present oxazole compound, 2-(2,6-difluorophenyl)-4-[4-(1,1-dimethylethyl)-2-ethoxyphenyl]-4,5-dihydrooxazole], the solubility was 75.4 pg per 1 liter.
